Assay: In vivo biodistribution of radioactive ^99mTc complexes in female SD rats
Parameters: species or system female Sprague-Dawley (SD) rats
Conditions: for Biodistribution: Large Intestine / Biodistribution: Small Intestine / Biodistribution: Stomach: unit % ID
Procedure: Female SD rats (180-220 g, n=3) were fasted for 12 h before the experiment, and the purified radioactive 99mTc complexes 78-81 were prepared into physiological saline (containing 10% ethanol) solutions of about 250-350 μCi/mL. 200 μL of the above solution was injected into the tail vein of female SD rats, and the rats were killed by cervical dislocation at five time points, 15, 30, 60, 120 and 240 min after the tail vein injection. The blood, brain, heart, liver, spleen, lung, kidney, muscle, bone, large intestine, small intestine, stomach and tail were collected, weighed and counted, and the count distribution of each tissue and organ was calculated (unit: % ID/g, the unit of large intestine, small intestine and stomach is % ID), and the data are the mean±standard deviation of three mice in each phase. At the same time, 200 μL of the above solution was diluted to 20 mL, which was used as the % ID without deducting the tail count.

COC(C)(C)C[N+]#[C][99Tc-5]([C]#[N+]CC(C)(C)OC)([C]#[N+]CC(C)(C)OC)([C]#[N+]CC(C)(C)OC)([C]#[N+]CC(C)(C)OC)[C]#[N+]CC(C)(C)OCCCCCSCCCCC(=O)O [^99mTc complex 80]
Biodistribution: Blood (15 min post-injection): 0.018 ± 0.003 ID %/g
Biodistribution: Bone (15 min post-injection): 0.11 ± 0.05 ID %/g
Biodistribution: Brain (15 min post-injection): 0.008 ± 0.004 ID %/g
Biodistribution: Heart (15 min post-injection): 0.94 ± 0.16 ID %/g
Biodistribution: Kidney (15 min post-injection): 2.43 ± 0.10 ID %/g
Biodistribution: Liver (15 min post-injection): 0.49 ± 0.03 ID %/g
Biodistribution: Lungs (15 min post-injection): 0.14 ± 0.04 ID %/g
Biodistribution: Muscle (15 min post-injection): 0.14 ± 0.04 ID %/g
Biodistribution: Spleen (15 min post-injection): 0.23 ± 0.06 ID %/g
Heart-to-Blood ratio (15 min post-injection): 53.37 ± 6.93
Heart-to-Liver ratio (15 min post-injection): 1.91 ± 0.40
Heart-to-Lungs ratio (15 min post-injection): 7.04 ± 1.69
absolute myocardial uptake value (15 min post-injection): 0.94±0.16 % ID/g
Biodistribution: Large Intestine (15 min post-injection): 5.34 ± 1.37 % ID
Biodistribution: Small Intestine (15 min post-injection): 8.49 ± 0.85 % ID
Biodistribution: Stomach (15 min post-injection): 0.27 ± 0.09 % ID
Biodistribution: Blood (30 min post-injection): 0.026 ± 0.003 ID %/g
Biodistribution: Bone (30 min post-injection): 0.10 ± 0.01 ID %/g
Biodistribution: Brain (30 min post-injection): 0.010 ± 0.003 ID %/g
Biodistribution: Heart (30 min post-injection): 1.42 ± 0.32 ID %/g
Biodistribution: Kidney (30 min post-injection): 4.66 ± 0.51 ID %/g
Biodistribution: Liver (30 min post-injection): 1.01 ± 0.29 ID %/g
Biodistribution: Lungs (30 min post-injection): 0.32 ± 0.04 ID %/g
Biodistribution: Muscle (30 min post-injection): 0.22 ± 0.07 ID %/g
Biodistribution: Spleen (30 min post-injection): 0.26 ± 0.06 ID %/g
Heart-to-Blood ratio (30 min post-injection): 54.80±11.86
Heart-to-Liver ratio (30 min post-injection): 1.48 ± 0.45
Heart-to-Lungs ratio (30 min post-injection): 4.40 ± 0.64
absolute myocardial uptake value (30 min post-injection): 1.42±0.32 % ID/g
Biodistribution: Large Intestine (30 min post-injection): 6.69 ± 0.68 % ID
Biodistribution: Small Intestine (30 min post-injection): 10.71 ± 1.89 % ID
Biodistribution: Stomach (30 min post-injection): 0.53 ± 0.07 % ID
Biodistribution: Blood (60 min post-injection): 0.013 ± 0.003 ID %/g
Biodistribution: Bone (60 min post-injection): 0.064 ± 0.004 ID %/g
Biodistribution: Brain (60 min post-injection): 0.011 ± 0.005 ID %/g
Biodistribution: Heart (60 min post-injection): 2.06 ± 0.06 ID %/g
Biodistribution: Kidney (60 min post-injection): 2.39 ± 0.58 ID %/g
Biodistribution: Liver (60 min post-injection): 0.33 ± 0.09 ID %/g
Biodistribution: Lungs (60 min post-injection): 0.22 ± 0.03 ID %/g
Biodistribution: Muscle (60 min post-injection): 0.48 ± 0.06 ID %/g
Biodistribution: Spleen (60 min post-injection): 0.16 ± 0.06 ID %/g
Heart-to-Blood ratio (60 min post-injection): 164.01±43.51
Heart-to-Liver ratio (60 min post-injection): 6.43±1.85
Heart-to-Lungs ratio (60 min post-injection): 9.48±1.39
absolute myocardial uptake value (60 min post-injection): 2.06 0.06 % ID/g
Biodistribution: Large Intestine (60 min post-injection): 12.36 ± 2.55 % ID
Biodistribution: Small Intestine (60 min post-injection): 6.75 ± 1.89 % ID
Biodistribution: Stomach (60 min post-injection): 0.56 ± 0.27 % ID
Biodistribution: Blood (120 min post-injection): 0.009 ± 0.001 ID %/g
Biodistribution: Bone (120 min post-injection): 0.07 ± 0.02 ID %/g
Biodistribution: Brain (120 min post-injection): 0.010 ± 0.005 ID %/g
Biodistribution: Heart (120 min post-injection): 1.73 ± 0.09 ID %/g
Biodistribution: Kidney (120 min post-injection): 1.30 ± 0.41 ID %/g
Biodistribution: Liver (120 min post-injection): 0.18 ± 0.01 ID %/g
Biodistribution: Lungs (120 min post-injection): 0.16 ± 0.01 ID %/g
Biodistribution: Muscle (120 min post-injection): 0.34 ± 0.03 ID %/g
Biodistribution: Spleen (120 min post-injection): 0.15 ± 0.01 ID %/g
Heart-to-Blood ratio (120 min post-injection): 197.36±32.29
Heart-to-Liver ratio (120 min post-injection): 9.68±0.76
Heart-to-Lungs ratio (120 min post-injection): 11.40±3.06
absolute myocardial uptake value (120 min post-injection): 1.73±0.09 % ID/g
